Experimental data as given in patent US20240002332A1, “Small Molecule Inhibitors of SARS-CoV-2 Infections” (priority 2020, published 2024).
Values joined by “and” are separate entries in the source; they are usually repeats but may differ in a detail not shown here. Equal entries are not always repeated.

Assays:
[1] = tested on: SARS CoV-2 (USA_WA1/2020); experiment: Cytopathic effect (CPE) assay; assay type: cell-based; conditions: Severe acute respiratory syndrome coronavirus 2, Vero C1008, 72 h
Vero-E6 = experiment: Cytotoxicity counter screen (cell viability, CellTiter-Glo); assay type: cell-based
Procedure: Compound cytotoxicity was assessed in a BSL-2 counter screen as follows: Cell culture media (MEM, 1% Pen/Strep/GlutaMax, 1% HEPES, 2% HI FBS) was dispensed at 5 μl/well into ARPs and incubated at room temperature to allow for compound dissolution. Vero-E6 (selected for high ACE2 expression) was dispensed into assay plates at 4000 cells/well in 25 μl media. Assay plates were incubated for 72 h at 37 C, 5% CO2, 90% humidity. Then, 30 μl/well of CellTiter-Glo (Promega #G7573) was dispensed into the assay plate. Luminescence was read using a BMG PHERAstar plate reader following incubation at room temperature for 10 min to measure cell viability.

[2] = Pharmacokinetics in male hamsters, plasma and lung, IV 3 mg/kg or PO 30 mg/kg; conditions: for Kp at 0.083 h / Kp at 4 h / Kp at 2 h / Kp at 8 h / Kp at 0.5 h / Kp at 1 h / Kp at […]: Ratio (Lung/Plasma)
Procedure: Compound P3 was administered intravenously (3 mg/kg dosing in 20% HP-β-CD in water) or orally (30 mg/kg dosing in 20% HP-β-CD in water).

in vivo = conditions: C57BL/6, mouse, po, C57BL/6 mice; for AUC(0-inf): AUCInf; for AUC(0-t): AUClast; for half-life: t1/2, Compound P3 in plasma
[3] = Compound P3 IV 3 mg/kg, 0.083 h, individual animals, 3 mg/kg
[4] = Compound P3 IV 3 mg/kg, 4 h, individual animals, 3 mg/kg
[5] = Compound P3 IV 3 mg/kg, 8 h, individual animals, 3 mg/kg
[6] = Compound P3 IV 3 mg/kg, 24 h, individual animals, 3 mg/kg
[7] = Compound P3 PO 30 mg/kg, 0.5 h, individual animals, 30 mg/kg
[8] = Compound P3 PO 30 mg/kg, 1 h, individual animals, 30 mg/kg
[9] = Compound P3 PO 30 mg/kg, 2 h, individual animals, 30 mg/kg
[10] = Compound P3 PO 30 mg/kg, 4 h, individual animals, 30 mg/kg
[11] = Compound P3 PO 30 mg/kg, 8 h, individual animals, 30 mg/kg
[12] = Compound P3 intravenously or orally
[13] = 50 mg/kg, Compound P3 in plasma, PO 50 mg/kg (PO_A), Mean n = 3
[14] = 50 mg/kg, Compound P3 in plasma, PO 50 mg/kg (PO_A), individual mice
[15] = 100 mg/kg, Compound P3 in plasma, PO 100 mg/kg (PO_B), Mean n = 3

O=C(Nc1ccc([N+](=O)[O-])cc1Cl)c1cc(Cl)ccc1OC(=O)N1CCNCC1 [Compound P3, 4-chloro-2-((2-chloro-4-nitrophenyl)carbamoyl)phenyl piperazine-1-carboxylate]
IC50 [1]: 4.05 µM | Emax ([1]; read-out: Efficacy CPE assay): 40.7% | IC50 (Vero-E6; Chlorocebus sabaeus, Vero C1008, 72 h, read-out: IC50 (μM) cell viability): 7.21 µM | Efficacy cell viability (Vero-E6; uninfected Vero-E6, 72 h, CellTiter-Glo): −99.8 | Lung [2, 3]: 15360 ng/g and 23120 ng/g | Ratio (Lung/Plasma) [2, 3]: 36.0 and 31.0 | Lung [2, 4]: 1436 ng/g and 2904 ng/g and 1800 ng/g | Ratio (Lung/Plasma) [2, 4]: 111 and 59.4 | Lung [2, 5]: 263 ng/g and 275 ng/g | Ratio (Lung/Plasma) [2, 5]: 45.3 and 76.3 and 109 | plasma concentration ([2]; Compound P3 IV 3 mg/kg, 24 h, individual animals): BLOQ | Lung [2, 6]: 8.44 ng/g and 3.59 ng/g | lung concentration, Conc. (ng/mL) [2, 6]: BLOQ | Lung [2, 7]: 113200 ng/g and 72400 ng/g and 33400 ng/g | Ratio (Lung/Plasma) [2, 7]: 53.2 and 59.7 | Lung [2, 8]: 82400 ng/g and 105600 ng/g | Ratio (Lung/Plasma) [2, 8]: 69.2 and 130 | Lung [2, 9]: 102000 ng/g and 74400 ng/g | Ratio (Lung/Plasma) [2, 9]: 96.2 and 108 | Lung [2, 10]: 48800 ng/g and 65200 ng/g | Ratio (Lung/Plasma) [2, 10]: 215 and 97.6 and 73.2 | Lung [2, 11]: 6800 ng/g and 2928 ng/g and 7080 ng/g | Ratio (Lung/Plasma) [2, 11]: 191 and 311 | plasma concentration ([2]; Compound P3 PO 30 mg/kg, 24 h, individual animals): BLOQ | Lung ([2]; Compound P3 PO 30 mg/kg, 24 h, individual animals, 30 mg/kg): 38.2 ng/g and 22.6 ng/g and 11.1 ng/g | amount of active metabolite in lung tissue relative to plasma concentration [2, 12]: significantly higher amount of active metabolite in lung tissue | overall concentration of active metabolite [2, 12]: provided a higher overall concentration of active metabolite | concentration at 0.083 h ([2]; male, hamster, in vivo, iv, 3 mg/kg, Lung (ng/g), Compound P3 IV 3 mg/kg, 0.083 h, individual animals): 27400 ng/g | concentration at 8 h ([2]; male, hamster, in vivo, iv, 3 mg/kg, Lung (ng/g), Compound P3 IV 3 mg/kg, 8 h, individual animals): 270 ng/g | Kp at 0.083 h ([2]; male, hamster, in vivo, iv, 3 mg/kg, Compound P3 IV 3 mg/kg, 0.083 h, individual animals): 34.1 | Kp at 4 h ([2]; male, hamster, in vivo, iv, 3 mg/kg, Compound P3 IV 3 mg/kg, 4 h, individual animals): 68.4 | Kp at 0.083 h ([2]; male, hamster, in vivo, iv, 3 mg/kg, Mean, Compound P3 IV 3 mg/kg, 0.083 h): 33.7 | Kp at 2 h ([2]; male, hamster, in vivo, iv, 3 mg/kg, Mean, Compound P3 IV 3 mg/kg, 2 h): 81 | Kp at 4 h ([2]; male, hamster, in vivo, iv, 3 mg/kg, Mean, Compound P3 IV 3 mg/kg, 4 h): 80 | Kp at 8 h ([2]; male, hamster, in vivo, iv, 3 mg/kg, Mean, Compound P3 IV 3 mg/kg, 8 h): 77 | concentration at 1 h ([2]; male, hamster, in vivo, po, 30 mg/kg, Lung (ng/g), Compound P3 PO 30 mg/kg, 1 h, individual animals): 106000 ng/g | concentration at 2 h ([2]; male, hamster, in vivo, po, 30 mg/kg, Lung (ng/g), Compound P3 PO 30 mg/kg, 2 h, individual animals): 67600 ng/g | concentration at 4 h ([2]; male, hamster, in vivo, po, 30 mg/kg, Lung (ng/g), Compound P3 PO 30 mg/kg, 4 h, individual animals): 65600 ng/g | Kp at 0.5 h ([2]; male, hamster, in vivo, po, 30 mg/kg, Compound P3 PO 30 mg/kg, 0.5 h, individual animals): 89.1 | Kp at 1 h ([2]; male, hamster, in vivo, po, 30 mg/kg, Compound P3 PO 30 mg/kg, 1 h, individual animals): 98.1 | Kp at 2 h ([2]; male, hamster, in vivo, po, 30 mg/kg, Compound P3 PO 30 mg/kg, 2 h, individual animals): 88.6 | Kp at 8 h ([2]; male, hamster, in vivo, po, 30 mg/kg, Compound P3 PO 30 mg/kg, 8 h, individual animals): 194 | Kp at […] ([2]; male, hamster, in vivo, po, 30 mg/kg, Compound P3 PO 30 mg/kg, individual animals): 34.8 | Kp at 0.5 h ([2]; male, hamster, in vivo, po, 30 mg/kg, Mean, Compound P3 PO 30 mg/kg, 0.5 h): 67.4 | Kp at 1 h ([2]; male, hamster, in vivo, po, 30 mg/kg, Mean, Compound P3 PO 30 mg/kg, 1 h): 99 | Kp at 2 h ([2]; male, hamster, in vivo, po, 30 mg/kg, Mean, Compound P3 PO 30 mg/kg, 2 h): 98 | Kp at 4 h ([2]; male, hamster, in vivo, po, 30 mg/kg, Mean, Compound P3 PO 30 mg/kg, 4 h): 129 | Kp at 8 h ([2]; male, hamster, in vivo, po, 30 mg/kg, Mean, Compound P3 PO 30 mg/kg, 8 h): 232 | Kp at […] ([2]; male, hamster, in vivo, po, 30 mg/kg, Mean, Compound P3 PO 30 mg/kg): 32.3 | AUC(0-inf) (in vivo; [13]): 88700 ng·h/mL | AUC(0-t) (in vivo; [13]): 9730 ng·h/mL | AUC(0-t) (in vivo; [14]): 6360 ng·h/mL | Cmax (in vivo; [13]): 1460 ng/mL | Cmax (in vivo; [14]): 1140 ng/mL | half-life (in vivo; 50 mg/kg, PO 50 mg/kg (PO_A), Mean n = 3): 4.14 h | half-life (in vivo; 50 mg/kg, PO 50 mg/kg (PO_A), individual mice): 4.58 h | Tmax (in vivo; 50 mg/kg, tmax, Compound P3 in plasma, PO 50 mg/kg (PO_A), Mean n = 3): 2 h | AUC(0-inf) (in vivo; [15]): 38100 ng·h/mL | AUC(0-t) (in vivo; [15]): 26400 ng·h/mL | AUC(0-t) (in vivo; 100 mg/kg, Compound P3 in plasma, PO 100 mg/kg (PO_B), individual mice): 26000 ng·h/mL | Cmax (in vivo; [15]): 3060 ng/mL
